Consider 60 compounds from a melting point compilation (Tetko et al.; mined from patent text by program, amines drawn as free bases though some values may be those of a salt).

One may read the melting point as the temperature, or range, at which the solid turns liquid.

In the case of `CCCCOc1c(CNC(=O)OC(C)(C)C)n(CC(C)C)c(=O)c2ccc(C(N)=S)cc12`, the melting point fell in the range of 189 to 190 °C.

Regarding `CSc1nc(-c2cc(N)ccc2C)c2c(n1)N(c1c(F)cccc1F)C(=O)NC2`, the melting point lay in the range of 122 to 125 °C.

On to `CCCc1ncc(/C=C(\Cc2cccs2)c2nnn[nH]2)n1Cc1ccccc1Cl`, for which the melting point was in the range of 174 to 175 °C.

`CCCc1ccc(OCc2ccc(OCc3nc(-c4ccccc4)oc3C)cc2)cc1OCC(=O)O` yielded a melting point of 162 to 163 °C.

With `CC(=O)Nc1ccc(OC(=O)C=CC=C(C)C=CC=C(C)C=CC2=C(C)CCCC2(C)C)cc1`, the melting point was in the range of 219 to 222 °C.

Take `CCC1=NC(NC(=O)Nc2cccc(C)c2)C(=O)N(CC(=O)C2CCCCC2)c2c(C)cccc21` (stereo not given): the melting point is 161 to 164 °C.

In turn, `O=C(NCCCCCCOCc1ccc(OCc2ccccc2)cc1)c1cc(-c2cccc(C(F)(F)F)c2)c(O)c(-c2cccc(C(F)(F)F)c2)c1` displayed a melting point of 127 to 130 °C.

Regarding `Cc1cc(C2(C(F)(F)F)CN=C(c3ccc(Cl)cc3)S2)ccc1NC(=O)c1cccc(I)c1C(=O)NC(C)C` (stereo not given), the melting point is 121 to 123 °C.

As for `CCCCNC(=O)ON1C(C)(C)CC(OC(=O)C(CC)(CC)C(=O)OC2CC(C)(C)N(OC(=O)NCCCC)C(C)(C)C2)CC1(C)C`, the melting point lay in the range of 166 to 169 °C.

As to `CCOCCn1c(N2CCCN(CCC3(c4ccccc4)CCN(C(=O)c4cc(NC(C)=O)ccc4OC)C3)CC2)nc2ccccc21` (stereo not given), the melting point is 145 to 150 °C.

`COC(=O)C(=O)c1ccc(C#CCNC(=O)c2ccc3ccccc3c2)cc1` had a melting point of 113 to 114 °C.

Consider `CN1CCN(S(=O)(=O)c2ccc([C@@H](CC3CCCC3)C(=O)O)cc2)CC1`, for which the melting point lay within 202 to 203 °C.

The compound `CCN(CC)CCNC(=O)c1cc(I)cc2c(F)ccnc12` had a melting point of 79 to 81 °C.

Consider `CCC(CC)Nc1nc2c(c(-c3c(C)cc(C)cc3C)cn2C)c(=O)n1C`, for which the melting point is 174 to 176 °C.

In turn, `Cc1cccc(C)c1N=CNc1c(C)cccc1C` displayed a melting point of 174 to 176 °C.

`COC(=C(OC)c1ccccc1OC)c1ccc(N)nn1` showed a melting point of 139 to 142 °C.

`Cc1cc(-n2c(C)nnc2C)cc2ccc(=O)[nH]c12` showed a melting point of 308 to 310 °C.

Regarding `CCCN1C(=O)/C(=C/c2c[nH]c3ncccc23)N=C1C`, the melting point stood at 206 °C.

Consider `CCOC(OCC)c1[nH]c(C2CC2)nc(=O)c1Cl`, for which the melting point was 109 to 111 °C.

With `CC(=O)c1cccc(C)c1NC(=O)CBr`, the melting point lay in the range of 97 to 100 °C.

In turn, `CCN(CC)c1nsc(NC(=O)NC)c1C(N)=O` came in with a melting point of 195 to 197 °C.

`CN(c1ccc(O)cc1)c1nc2cc(Cl)ccc2o1`: the melting point lay in the range of 216 to 217 °C.

Regarding `CCCCc1cccnc1NC=C(C#N)C(=O)OCC`, the melting point is 98.5 to 99.5 °C.

`COC(=O)C(c1ccc(NC(C)=O)cc1)C1CC1` (stereo not given) returned a melting point of 159 to 162 °C.

`CN(CC(=O)O)S(=O)(=O)c1ccc(-c2ccc(NC(=O)c3cc4ccccc4o3)cc2)cc1`: the melting point lay within 226 to 228 °C.

Turning to `CC(C)(C)OC(=O)N1CCC(Nc2nccc(-c3c(-c4ccc(F)cc4)nc4occn34)n2)CC1`, the melting point amounted to 175 °C.

The compound `Cc1ccc(Cn2nc(Br)c([N+](=O)[O-])c2NCc2ccccc2)cc1` gave a melting point of 108 °C.

On to `O=c1cc(-c2ccccc2)sc(N2CCOCC2)c1`, for which the melting point lay in the range of 160 to 161 °C.

`OC(CN1CCN(C(c2ccccc2)c2ccccc2)CC1)c1ccc(OCc2ccccc2)cc1OCc1ccccc1` (stereo not given) displayed a melting point of 151 °C.

With `Cc1nnc2ccc(-c3ccc(N)c(C(F)(F)F)c3)nn12`, the melting point lay in the range of 240 to 242 °C.

The compound `CSc1nccc(-c2c(-c3ccc(F)cc3)nc3occn23)n1` registered a melting point of 144 to 145 °C.

Turning to `CC1=NC(NC(=O)Nc2cccc(C)c2)C(=O)N(CC(=O)C2CCCCCC2)c2c(C)cccc21` (stereo not given), the melting point was in the range of 171 to 175 °C.

In turn, `Cc1cc2c(c3ccc(=O)[nH]c13)OC(CNC=O)C2` (single isomer, unassigned; (+)) yielded a melting point of 282 to 284 °C.

With `COc1cc(C(=O)N2CCC(CCN3CCC(=C(c4ccccc4)c4ccccc4)CC3)(c3ccc(Cl)c(Cl)c3)C2)cc(OC)c1OC` (stereo not given), the melting point lay in the range of 90 to 94 °C.

In turn, `COc1ccc(C2CN(C)CCC2=NO)cc1` (stereo not given) returned a melting point of 121 to 122 °C.

In the case of `O=S(=O)(c1ccccc1)C1CCCO1` (stereo not given), the melting point was 55.9 to 56.8 °C.

As to `CCOC(=O)Cc1nc(-c2ccc(F)cc2)oc1-c1ccco1`, the melting point is 110 to 111 °C.

Compound `CCCCc1oc2ccccc2c1C(=O)NCc1ccc2c(Br)c(O)ccc2c1` displayed a melting point of 192 to 193 °C.

Regarding `N#Cc1ccccc1C#CC1(C(F)(F)F)OC(=O)Nc2ccc(Cl)cc21` (racemic), the melting point lay within 245 to 246 °C.

`O=C(NC1CCSc2cc(C(=O)O)ccc21)OCc1ccccc1` (stereo not given) registered a melting point of 202 to 205 °C.

As to `COC(=O)C1=C(C)NN=C(c2ccccc2)C1c1ccccc1Cl` (stereo not given), the melting point was 198 °C.

`CCOC(=O)c1cc([N+](=O)[O-])ccc1NC(=O)OC(C)(C)C` came in with a melting point of 118 to 121 °C.

With `COc1ccc(N2CCN(c3c(C)c(C)c4c(c3C)CC(C)(C)O4)CC2)cc1F`, the melting point fell in the range of 161 to 163 °C.

On to `CC(=O)N1C(C)(C)CC(OC(=O)C(Cc2cc(C(C)(C)C)c(O)c(C(C)(C)C)c2)(Cc2cc(C(C)(C)C)c(O)c(C(C)(C)C)c2)C(C)=O)CC1(C)C`, for which the melting point lay in the range of 165 to 166 °C.

`O=C1Nc2ccc(Cl)cc2C1(Cl)c1ccccc1OC(F)(F)F` (stereo not given) came in with a melting point of 185 °C.

In turn, `CCOC(=O)C1=C(C)NC(C)=C(C(=O)OCC)C1c1c(SC)sc2ccccc12` came in with a melting point of 177 to 179 °C.

`O=C(O)C(S)c1cc(Cl)ccc1Cl` (stereo not given) displayed a melting point of 129 to 130 °C.

Compound `CCC(=CC(CNC(=O)c1cccnc1O)=NO)C(C)[N+](=O)[O-]` (stereo not given) gave a melting point of 92 to 95 °C.

`Cc1cc(-c2ccccc2)nc(-c2cccc([N+](=O)[O-])c2)c1C(=O)N1CCN(C)CC1` yielded a melting point of 127 to 129 °C.

Take `COc1cc(OC)nc(NC(=O)NS(=O)(=O)Nn2cccc2C(=O)N(C)C)n1`: the melting point was in the range of 150 to 152 °C.

In turn, `CN(Cc1ccccc1)c1ccc(C(=O)c2ccccc2)cc1[N+](=O)[O-]` showed a melting point of 99.5 °C.

As to `COC(=O)c1ccc2c(c1)CN(C(=O)OCc1ccccc1)C2`, the melting point is 59 to 65 °C.

`CCN(CC)c1nc2[nH]c3c(c(=O)n2n1)SCCC3` yielded a melting point of 308 to 310 °C.

`Cc1cc(COC2CCCCO2)nc(N)n1` (stereo not given) yielded a melting point of 109 to 110 °C.

On to `CCCCOc1cc2ccc(C(=O)O)cc2cc1OCCCC`, for which the melting point lay in the range of 168 to 169 °C.

Turning to `O=C1C(=Cc2ccc(Cl)cc2)Cc2ccccc21`, the melting point was 174 to 179 °C.

`N#CCCc1ccc(OCC2(O)CN3CCC2CC3)cc1` (stereo not given) registered a melting point of 92 to 94 °C.

The compound `CCOC(=O)c1c(C(F)(F)F)nc(OC)c(C#N)c1OC` came in with a melting point of 32 to 34 °C.

Consider `COc1nc(NCCCN2CCOCC2)nc(OC)c1NC(=O)c1coc(Oc2cccc(C(C)(C)C)c2)n1`, for which the melting point is 85 °C.

`CON1CCC2(CC1)NC(=O)C(c1c(C)cc(C#C[Si](C)(C)C)cc1C)=C2O` yielded a melting point greater than 240 °C.
